The record followed here is patent publication US20160279079A1, “COMPOSITIONS AND METHODS FOR TREATING BONE DISEASES” (INDIANA UNIVERSITY RESEARCH AND TECHNOLOGY CORPORATION, priority 2013, published 2016).

Data set [1] concerns RAW264.7 mouse pre-osteoclast (monocyte/macrophage) cells. As to the kind of experiment: Cell mortality and live cell numbers (trypan blue, hemacytometer). It counts as cell-based. Here is the method: METHOD EXAMPLE. Cell culture. MC3T3 E1 mouse osteoblast-like cells (clone 14—MC3T3 E1-14; and no clonal cells in supplementary figures), and RAW264.7 mouse pre-osteoclast (monocyte/macrophage) cells were cultured in αMEM containing 10% fetal bovine serum and antibiotics (50 units/ml penicillin, and 50 μg/ml streptomycin; Life Technologies, Grand Island, N.Y., USA). Cells were maintained at 37° C. and 5% CO2 in a humidified incubator. Cell mortality and live cell numbers were determined 24 h after the treatment with 20 ng/ml RANKL (PeproTech, Rocky Hills, N.C., USA) in response to 0.1-20 μM salubrinal or 1-20 μM guanabenz acetate (Tocris Bioscience, Ellisville, Mo., USA). Cells were stained with trypan blue and the numbers of live and dead cells were counted using a hemacytometer.
METHOD EXAMPLE. Inhibition of osteoclastogenesis of RAW264.7 cells by salubrinal. The primary aim of this study is to evaluate the effects of salubrinal on osteoclastogenesis. In response to 0.1-20 μM salubrinal for 24 h, cell mortality and live cell numbers of RAW264.7 pre-osteoclasts was examined. […] The number of live cells was increased by ˜50% by incubation with RANKL, and administration of 10-20 μM salubrinal reduced the numbers approximately by 10% (FIG. 3B).
METHOD EXAMPLE. Inhibitory effects of guanabenz on osteoclastogenesis of RAW264.7 cells. To further examine a potential involvement of p-eIF2α in regulation of osteoclastogenesis, we employed guanabenz that also acts as an inhibitor of de-phosphorylation of eIF2α was evaluated. […] Compared to the number of TRAP-positive multi-nucleated cells of 377 39 (RANKL only), guanabenz reduced the number of differentiated osteoclasts to 364±38 (1 μM), 288±51 (5 μM), 189±25 (10 μM), and 73±16 (20 μM).

Another data set concerns NFATc1. Description: Quantitative real-time PCR, NFATc1 mRNA in RAW264.7 cells. It counts as cell-based, mouse. Here is the method: (§1) METHOD EXAMPLE. Quantitative real-time PCR. Total RNA was extracted using an RNeasy Plus mini kit (Qiagen, Germantown, Md., USA). Reverse transcription was conducted with high capacity cDNA reverse transcription kits (Applied Biosystems, Carlsbad, Calif., USA), and quantitative real-time PCR was performed using ABI 7500 with Power SYBR green PCR master mix kits (Applied Biosystems). We evaluated mRNA levels of ATF4, Osteocalcin (OCN), NFATcl, c-Fos, tartrate-resistant acid phosphatase (TRAP), and osteoclast-associated receptor (OSCAR) with the PCR primers listed in Table 1. GAPDH was used for internal control. The relative mRNA abundance for the selected genes with respect to the level of GAPDH mRNA was expressed as a ratio of Streated/Scontrol, where Streated=mRNA level for the cells treated with chemical agents, and Scontrol=mRNA level for control cells.
(§2) METHOD EXAMPLE. Partial suppression of mRNA levels of NFATcl, c-Fos, TRAP, and OSCAR by salubrinal. […] On day 2, for instance, the RANKL-driven increase was 9.4±0.5 fold (NFATcl), 1.9±0.1 fold (c-fos), 165±4.2 fold (TRAP), and 467±22 fold (OSCAR). The reduction by 20 μM salubrinal was 46% (NFATcl), 32% (c-fos), 35% (TRAP), and 21% (OSCAR) (FIG. 5A).
(§3) METHOD EXAMPLE. Reduction of RANKL-induced NFATcl, c-Fos, TRAP, and OSCAR by guanabenz. […] The normalized level of “1” was defined as the level for the cells that were not treated with RANKL without administration of guanabenz.
(In general: Real-time PCR tracks product formation cycle by cycle.)

In data set [2] the test system is tartrate-resistant acid phosphatase (TRAP). Description: Quantitative real-time PCR, TRAP mRNA in RAW264.7 cells. The data set is classed as cell-based, mouse. The conditions noted are these: for expression of TRAP: absence of RANKL administration. Here is the method: as §1, §2, §3
The next data set concerns Osteocalcin (OCN). As to the kind of experiment: Quantitative real-time PCR, osteocalcin mRNA in MC3T3 E1-14 cells. It counts as cell-based, mouse. The conditions noted are these: for increase of the level of osteocalcin mRNA: 5 μM salubrinal. The method, then:
as §1
METHOD EXAMPLE. Knockdown of ATF4 and eIF2α by siRNA. Cells were treated with siRNA specific to ATF4 and eIF2α (Life Technologies). Selected target sequences for knockdown of ATF4 and eIF2α were: ATF4, 5′-GCU GCU UAC AUU ACU CUA A-3′; and eIF2α, 5′-CGG UCA AAA UUC GAG CAG A-3′. As a nonspecific control, a negative siRNA (Silencer Select #1, Life Technologies) was used. Cells were transiently transfected with siRNA for ATF4, eIF2α or control in Opti-MEM I medium with Lipofectamine RNAiMAX (Life Technologies). Six hours later, the medium was replaced by regular culture medium. The efficiency of silencing was assessed with immunoblotting or quantitative PCR 48 h after transfection.
METHOD EXAMPLE. ATF4-mediated elevation of osteocalcin mRNA in MC3T3 E1-14 cells. Salubrinal is an inhibitor of de-phosphorylation of eIF2α. […] Furthermore, the level of osteocalcin mRNA was increased 3.3±0.5 fold (24 h) and 3.3±0.3 fold (32 h) (FIG. 2B). […] Non-clonal MC3T3 E1 cells also presented elevation of p-eIF2α and ATF4, together with an increase in the mRNA levels of ATF4 and osteocalcin (Supplementary FIG. S2).

For another data set, the system named is ATF4. Description: Western immunoblotting, ATF4 in MC3T3 E1-14 cells. It counts as cell-based, mouse. Here is the method: METHOD EXAMPLE. Western Immunoblotting. Cells were lysed in a radioimmunoprecipitation assay (RIPA) buffer containing protease inhibitors (Santa Cruz Biotechnology, Santa Cruz, Calif., USA) and phosphatase inhibitors (Calbiochem, Billerica, Mass., USA). Isolated proteins were fractionated using 10-15% SDS gels and electro-transferred to Immobilon-P membranes (Millipore, Billerica, Mass., USA). The membrane was incubated for 1 h with primary antibodies followed by 45 min incubation with goat anti-rabbit or anti-mouse IgG conjugated with horseradish peroxidase (Cell Signaling, Danvers, Mass., USA). We used antibodies against ATF4, NFATcl (Santa Cruz), p-eIF2α (Thermo Scientific, Waltham, Mass., USA), eIF2α, caspase 3, cleaved caspase 3, p38 and p-p38 mitogen activated protein kinase (MAPK), extracellular signal-regulated kinase (ERK) and p-ERK, nuclear factor kappa B (NFκB) p65 and p-NFκB p65 (Cell Signaling), and β-actin (Sigma). Protein levels were assayed using a SuperSignal west femto maximum sensitivity substrate (Thermo Scientific), and signal intensities were quantified with a luminescent image analyzer (LAS-3000, Fuji Film, Tokyo, Japan).
METHOD EXAMPLE. ATF4-mediated elevation of osteocalcin mRNA in MC3T3 E1-14 cells. Salubrinal is an inhibitor of de-phosphorylation of eIF2α. […]
A general note: In western blotting, separated proteins are transferred to a membrane and probed.

[3] abbreviates: 20 μM guanabenz, 2 days after RANKL.
[4] abbreviates: 20 μM salubrinal, day 2 after RANKL.

Like-named read-outs stand apart in the source and are kept apart here.

Consider `N=C(N)N/N=C/c1c(Cl)cccc1Cl` [guanabenz], for which the cell mortality result in data set [1] is “did not significantly alter”. In addition, the “NFATc1 mRNA level” value in the data set with NFATc1 (setting [3]) is reported as “reduced”. Further, the “TRAP mRNA level” value is recorded as “reduced” in data set [2] (setting [3]); “effective in reducing” in data set [2] (5 and 10 μM guanabenz, 2 days after RANKL). In data set [2], the “expression of TRAP” value is “did not significantly alter”. For the same compound, the “mRNA level of osteocalcin” value in the data set with Osteocalcin (OCN) (guanabenz dose response) is given as “elevated the mRNA level of osteocalcin in a dose dependent manner”. Moreover, the ATF4 result with ATF4 (guanabenz) is “increase in p-eIF2α and ATF4”.
For `O=C(/C=C/c1ccccc1)NC(NC(=S)Nc1cccc2cccnc12)C(Cl)(Cl)Cl` (stereo not shown) [salubrinal], in data set [1] (0.1-20 μM salubrinal, 24 h, presence and absence of RANKL), the Cell mortality ratio entry was “did not present statistically significant differences”. Also, the “reduction of the number of live cells” value in data set [1] (10-20 μM salubrinal, 24 h, with RANKL) is given as ~10%. Also, the cell mortality result in data set [1] (absence of RANKL administration) was “did not significantly alter”. Moreover, the “reduction of NFATc1 mRNA level” value in the data set with NFATc1 (setting [4]) came to 46%. In addition, the “NFATc1 mRNA level” value in the data set on NFATc1 (0.1-1 μM salubrinal, with RANKL, except on day 4) is reported as “did not contribute to significant reduction”. Also, the “reduction of TRAP mRNA level” value in data set [2] (setting [4]) came to 35%. In data set [2] (0.1-1 μM salubrinal, with RANKL, day 2 and day 4), the “TRAP mRNA level” value was “did not contribute to significant reduction”. In data set [2], the “expression of TRAP” value is reported as “did not significantly alter”. In addition, the results for the “increase of the level of osteocalcin mRNA” value in the data set with Osteocalcin (OCN) (24 h) and in the data set on Osteocalcin (OCN) (32 h) were 3.3±0.5 fold and 3.3±0.3 fold, respectively. Moreover, the “salubrinal-driven elevation of the osteocalcin mRNA level” value in the data set on Osteocalcin (OCN) (ATF4 expression reduced by RNA interference) is “suppressed”. Further, the ATF4 expression result in the data set on ATF4 (5 μM salubrinal) is given as “increase in ATF4 expression”.
